Results on 2 compounds are retold here after article PMC12406198, “Decadentate Acyclic Chelators for Lanthanum Radiopharmaceuticals” (Journal of Medicinal Chemistry, 2025).

The conditions of data set [1]: 0.15 M NaCl, cited from earlier work.
Data set [2] in a line: Stability constants of La^3+ complexes by pH potentiometry. The format is physicochemical. To be noted: −log[La^3+]free for [L] = 10 μM and [La^3+] = 1 μM at pH 7.4 and 25 °C; from literature constants. As for the experimental part: The stability constants of the La^3+ complexes were determined using pH potentiometry (I = 0.15 NaCl). A significant amount of the metal ion is not complexed by the TPADAC^4– ligand at the beginning of the titration at pH 1.7 (∼20%), which allows for stability constant determination using potentiometry. In the case of TPAEN^4– the amount of free La^3+ was small (∼4%), but the stability constants could be determined by fitting the titration data using both 1:1 and 1:2 (TPAEN^4–:La^3+) stoichiometries (Figure S1, Supporting Information). The TPADAC^4– ligand also forms complexes with 1:1 and 1:2 stoichiometries (Figure S2, Supporting Information).
The thermodynamic stability of the complexes at physiologically relevant pH was assessed by calculating pLa values, defined as −log[La^3+]free for [L] = 10 μM and [La^3+] = 1 μM at pH 7.4 and 25 °C following the recommendation of Raymond. This is a result of the high stability constants (log K LaL) that characterize the formation of these complexes, as well as the relatively low basicity of these ligands. Indeed, cyclohexyl derivatives TPADAC^4– and CHXOCTAPA^4– display considerably higher basicity than the ethyl analogues, as indicated by the Σ log K i ^H (i = 1–5) values shown in Table . Similarly, DTPA and DO3A derivatives are characterized by rather high basicities, which results in relatively low pLa values.
The pH-potentiometric titrations were carried out with a Methrohm 785 DMP titrator using a Metrohm-6.0233.100 combined electrode. The titrated solutions (5.000 mL) were thermostated at 25 °C and stirred and kept under inert gas atmosphere (N2) to avoid the effect of CO2. The pH-calibration of the electrode was performed using KH-phthalate (pH = 4.005) and borax (pH = 9.177) buffers. The concentrations of the ligand stock solutions were determined by pH-potentiometric titration. The protonation constants of the TPAEN^4– (in the pH range of 2.19–12.00 a total of 213 data pairs by titrating a 2.72 mM a ligand solution) and TPADAC^4– (in the pH range of 1.88–11.85 a total of 208 data pairs by titrating a 2.32 mM ligand solution), the stability and protonation constants of the complexes formed with La^3+ and the formation constants of their dinuclear complexes were determined by pH-potentiometric titration. The metal-to-ligand concentration ratios were 1:1 and 2:1. For the 1:1 ratio a total of 240 data pairs were recorded for a H4TPAEN concentration of 2.29 mM in the pH range of 1.77–11.86, while a total of 222 data pairs were collected in the pH range 1.72–11.85 for a 2.72 mM solution of H4TPADAC. For the 2:1 ratio we collected 259 data pairs for a 2.31 mM solution of H4TPAEN in the pH range of 1.73–11.82, and 259 data pairs for a 2.71 mM concentration of H4TPADAC in the pH range of 1.70–11.85. The calculation of [H^+] from the measured pH values was performed with the use of the method proposed by Irving et al. by titrating a 0.01 M HCl solution (I = 0.15 M NaCl) with a standardized NaOH solution. The differences between the measured and calculated pH values were used to obtain the [H^+] concentrations from the pH-data obtained in the titrations. The ionic product of water was determined from the same experiment in the pH range 11.25–11.85. The protonation and stability constants were calculated from the titration data with the PSEQUAD program. The quality of the fits was assessed with the fitting parameter (FP) calculated by PSEQUAD, which is defined as 2 FP=∑i=1n(Vi,calc−Vi,meas)^2/n−k

For data set [3] the following is noted: literature value, cited from earlier work.
The nature of data set [4]: Ligand protonation constants by pH-potentiometric titration. The format is physicochemical. The note with it: sum of literature protonation constants of related ligands.

Where two headings read alike, the source gives them in different places.

In the case of `O=C(O)CN(Cc1cccc(C(=O)O)n1)[C@@H]1CCCC[C@@H]1N(CC(=O)O)Cc1cccc(C(=O)O)n1` [CHXOCTAPA^4–, 6,6′-((((1R,2S)-cyclohexane-1,2-diyl)bis((carboxymethyl)azanediyl))bis(methylene))dipicolinic acid], in data set [1] (ref footnote b), the “log K LaL” value is 17.82, the “log K LaL ^H” value is reported as 2.00 and the “log K LaL ^OH” value is 12.75. In data set [2], this compound had a pLa of 16.6. Besides, in data set [3] (ref footnote c), the “log K 1 ^H” value is reported as 9.52, the “log K 2 ^H” value was 5.51, the “log K 3 ^H” value is recorded as 3.99 and the “log K 4 ^H” value is reported as 3.43. Further, in data set [3] (ref footnote c), the “log K 5 ^H” value was 1.59 and the “log K 6 ^H” value is listed as 0.61. Also, in data set [3] (ref footnote d), the “log K 1 ^H” value is given as 9.23, the “log K 2 ^H” value is recorded as 5.40, the “log K 3 ^H” value is 3.94 and the “log K 4 ^H” value is recorded as 2.24. For the same compound, in data set [3] (ref footnote d), the “log K 5 ^H” value is given as 1.82 and the “log K 6 ^H” value is 1.91. In addition, the “Σ log K i ^H (i = 1–5)” value in data set [4] is recorded as 24.04.
For `O=C(O)CN(CCN(CC(=O)O)Cc1cccc(C(=O)O)n1)Cc1cccc(C(=O)O)n1` [OCTAPA^4–, 6,6′-((ethane-1,2-diylbis((carboxymethyl)azanediyl))bis(methylene))dipicolinic acid], the “log K LaL” value in data set [1] (ref footnote a) is recorded as 19.92. Besides, the pLa in data set [2] came to 19.7. Also, in data set [3] (ref footnote a), the “log K 1 ^H” value is recorded as 8.52, the “log K 2 ^H” value is 5.40, the “log K 3 ^H” value is 3.65 and the “log K 4 ^H” value is given as 2.97. In data set [3] (ref footnote a), the “log K 5 ^H” value is 1.66. In data set [3] (ref footnote b), the “log K 1 ^H” value was 8.58, the “log K 2 ^H” value is 5.43, the “log K 3 ^H” value is listed as 3.75 and the “log K 4 ^H” value is 3.08. In data set [3] (ref footnote b), the “log K 5 ^H” value was 2.21 and the “log K 6 ^H” value was 1.61 ^b. The “Σ log K i ^H (i = 1–5)” value in data set [4] was 22.20.
